In PMC3261798, “Design, Synthesis, and Biological Evaluation of PKD Inhibitors” (Pharmaceutics, 2011):

How the values were obtained:
[1] = system: all PKD isoforms; details: cited from earlier work
[2] = target: T1, PKD1 (Homo sapiens, UniProt Q15139); experiment: Cellular PKD1 inhibition: densitometry of Western blots for PKD1 autophosphorylation at S916 in PMA-stimulated LNCaP cells; type: cell-based; details: for EC50: PMA-induced autophosphorylation of endogenous PKD1 in LNCaP prostate cancer cells; for fold improvement in cellular activity over CID755673: cellular EC50 relative to CID755673
T1 sequence (Q15139 1-912): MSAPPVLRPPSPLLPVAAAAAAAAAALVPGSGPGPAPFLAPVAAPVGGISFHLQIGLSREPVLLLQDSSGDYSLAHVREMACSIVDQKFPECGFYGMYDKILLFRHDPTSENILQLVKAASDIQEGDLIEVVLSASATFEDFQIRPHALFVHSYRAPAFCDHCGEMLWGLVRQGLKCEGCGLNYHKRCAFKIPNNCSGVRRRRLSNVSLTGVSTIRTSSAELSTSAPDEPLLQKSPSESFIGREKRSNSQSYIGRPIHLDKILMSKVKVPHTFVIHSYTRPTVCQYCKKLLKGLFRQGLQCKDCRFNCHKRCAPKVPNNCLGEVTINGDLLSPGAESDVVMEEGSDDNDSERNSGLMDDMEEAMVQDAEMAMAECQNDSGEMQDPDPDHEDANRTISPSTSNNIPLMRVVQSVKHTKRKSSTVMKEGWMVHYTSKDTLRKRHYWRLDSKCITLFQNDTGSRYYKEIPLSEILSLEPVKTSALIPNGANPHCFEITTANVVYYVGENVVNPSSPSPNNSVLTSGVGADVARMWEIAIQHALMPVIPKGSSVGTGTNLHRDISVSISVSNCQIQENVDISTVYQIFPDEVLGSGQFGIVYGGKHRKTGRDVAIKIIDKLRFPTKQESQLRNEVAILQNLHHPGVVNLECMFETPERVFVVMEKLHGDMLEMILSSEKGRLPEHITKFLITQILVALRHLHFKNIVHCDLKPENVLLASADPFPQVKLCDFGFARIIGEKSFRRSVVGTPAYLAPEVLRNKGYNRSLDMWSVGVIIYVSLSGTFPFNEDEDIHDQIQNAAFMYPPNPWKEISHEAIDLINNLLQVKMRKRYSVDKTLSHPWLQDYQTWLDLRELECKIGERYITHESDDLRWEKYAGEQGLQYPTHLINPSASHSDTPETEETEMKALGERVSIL
Experimental: Inhibition of PKD 1 in cells was determined by densitometry analysis of Western blotting data for PKD1 autophosphorylation at Ser^916 in LNCaP cells as previously described. LNCaP cells were pre-treated with PKD inhibitors for 45 min at various concentrations, and then stimulated with 10 nM phorbol 12-myristate 13-acetate (PMA) for 20 min. Cells were then collected and lysed in lysis buffer containing 200 mM Tris-HCl, pH 7.4, 100 μM 4-(2-aminoethyl) benzenesulfonyl fluoride, 1 mM EGTA, and 1% Triton X-100. Cell lysates were probed by Western blot analysis using primary antibodies targeting p-S916-PKD1 (Millipore), PKD1 (Cell Signaling Technology), or GAPDH. Densitometry analysis of visualized bands was used to determine the cellular IC50 values for PKD1 inhibition.

[3] = target: T1, PKD1; experiment: In vitro radiometric PKD kinase activity assay; type: biochemical; set-up: purchased Biomol International; details: for fold improvement in PKD1 potency over CID755673: relative to parent CID755673; for inhibitory activity against PKD (in words): preliminary biological data for kmg-NB5-13 and kmg-NB5-15
Experimental: In vitro radiometric PKD kinase assays were conducted as previously described. Briefly, 50 ng recombinant human PKD1 (Biomol International, Plymouth Meeting, PA, USA) was incubated at 30 °C for 10 min with a reaction mixture containing 2.5 μg syntide-2 (Sigma), 70 μM ATP, and 1 μCi γ-^32 P-ATP (PerkinElmer, Boston, MA, USA) in kinase buffer (50 mM Tris-HCl pH 7.5, […], and 10 mM […]). 25 μL of the reaction mixture was then spotted on Whatman P81 filter paper (Whatman Inc., Clifton, NJ, USA), and filter papers were washed three times with 0.5% phosphoric acid, dried, then counted using a Beckman LS6500 multi-purpose scintillation counter.

[4] = target: T1, PKD1; experiment: IMAP-based PKD Fluorescence Polarization (FP) assay, automated HTS format; type: biochemical; details: mean ± SEM, n = number of independent experiments
Experimental: An automated, HTS formatted IMAP-based PKD Fluorescence Polarization (FP) assay was used to assess the specificity of the PKD analogs as previously described. […] Kinase reactions were incubated for 90 min at room temperature and stopped by the addition of IMAP binding reagent. Assay plates were then incubated for 2 h and IMAP-based FP data were captured on a Molecular Devices Spectra-Max M5 (Sunnyvale, CA, USA).

[5] = Preliminary in vivo studies (plasma half-life, metabolism; data not shown); details: for plasma half-life: preliminary in vivo studies, data not shown
[6] = target: T1, PKD1; experiment: % PKD1 activity at 1 μM (single concentration; assay format not stated); type: biochemical; details: compound at 1 μM
[7] = Aqueous solubility; type: physicochemical; details: aqueous medium with lipophilic solubilizing agents; even in the presence of lipophilic solubilizing agents
[8] = Stability in protic solvents; type: physicochemical; details: attributed to nucleophilic attack at C-4 of the pyrimidine
[9] = PKD1 autophosphorylation at S916 in LNCaP cells, mean ± SEM
[10] = mean ± SEM, n = number of independent experiments, read-out: IC50 Radiometric PKD1

Question: With `NC(=O)c1cc(-c2ccnc(NC3CCCCC3)c2)nc(N2CCNCC2)c1` [BPKDi] as the molecule, how does the “IC50 values, all three isoforms of PKD” value [1] read?
Answer: Its value is “single digit nanomolar”.

Question: With `O=C1NCCCc2c1oc1ccc(O)cc21` [CID755673, 7-Hydroxy-2,3,4,5-tetrahydro-[1]benzoxolo[2,3-c]azepin-1-one] as the molecule, how does the IC50 [2, 9] read?
Answer: The IC50 was 11800 ± 4000 nM.

Question: What about the EC50 [2] of the same molecule?
Answer: The EC50 was 11800 nM.

Question: And the IC50 [1]?
Answer: The IC50 was 200 to 300 nM.

Question: What about the IC50 [3, 10] of the same molecule?
Answer: The IC50 was 180 ± 20 nM.

Question: And the IC50 [4]?
Answer: Its IC50 is 640 ± 30 nM.

Question: With `CC[C@@H](N)CNc1ccnc(-c2cc(-c3cnn(C)c3)ccc2O)n1.Cl.Cl` [CRT0066101] as the molecule, how does the “IC50s, all isoforms of PKD” value [1] read?
Answer: Its value is “single-digit nanomolar”.

Question: With `C[C@H](C#N)Nc1cccc(-c2cc(-c3ccc(CNC4CCOCC4)cc3)on2)c1` [Compound 2b] as the molecule, how does the “IC50s, all PKD isoforms” value [1] read?
Answer: The value was “low nanomolar”.

Question: And the “fold preference for PKD1 versus PKD2” value [1]?
Answer: The value was 9 fold.

Question: What about the “fold preference for PKD1 versus PKD3” value [1] of the same molecule?
Answer: Its value is 3 fold.

Question: With `O=C1NCCCc2c1[nH]c1ccc(O)cc21` [kb-NB123-57, 3,4,5,10-Tetrahydro-7-hydroxy-azepino[3,4-b]indol-1(2H)-one] as the molecule, how does the “IC50 Cellular PKD1” value [2, 9] read?
Answer: The value was “no significant cellular activity”.

Question: What about the IC50 [3, 10] of the same molecule?
Answer: The IC50 was 130 ± 10 nM.

Question: And the IC50 [4]?
Answer: Its IC50 is 2140 ± 120 nM.

Question: Which IC50 [2, 9] does the source give for `O=C1NCCSc2c1sc1ccc(O)cc21` [kb-NB142-70, 3,4-Dihydro-9-hydroxy-[1]benzothieno[2,3-f]-1,4-thiazepin-5(2H)-one] here?
Answer: The IC50 was 2220 ± 590 nM.

Question: And the EC50 [2]?
Answer: The EC50 was 2200 nM.

Question: What about the “fold improvement in cellular activity over CID755673” value [2] of the same molecule?
Answer: Its value is “ca. 5 fold”.

Question: And the IC50 [3, 10]?
Answer: The IC50 was 28 ± 2 nM.

Question: What about the “fold improvement in PKD1 potency over CID755673” value [3] of the same molecule?
Answer: The value was about 7 fold.

Question: And the IC50 [4]?
Answer: Its IC50 is 710 ± 20 nM.

Question: What about the plasma half-life [5] of the same molecule?
Answer: Its plasma half-life is “short”.

Question: And the major metabolic pathway ([5]; preliminary results from an animal model)?
Answer: The major metabolic pathway was “glucuronidation of kb-NB142-70 at the phenolic position to be a major metabolic pathway”.

Question: Which IC50 [2, 9] does the source give for `COc1ccc2sc3c(c2c1)SCCNC3=O` [kb-NB165-09, 3,4-Dihydro-9-methoxy-[1]benzothieno[2,3-f]-1,4-thiazepin-5(2H)-one] here?
Answer: The IC50 was 3130 ± 540 nM.

Question: And the EC50 [2]?
Answer: The EC50 was 3100 nM.

Question: And the “fold improvement in cellular activity over CID755673” value [2]?
Answer: The value was “ca. 5 fold”.

Question: What about the IC50 [3, 10] of the same molecule?
Answer: The IC50 was 80 ± 10 nM.

Question: And the “fold improvement in PKD1 potency over CID755673” value [3]?
Answer: Its value is “ca. 7 fold”.

Question: What about the plasma half-life [5] of the same molecule?
Answer: Its plasma half-life is “short”.

Question: Which results are given for `O=C1NCCSc2c1sc1ccc(O)c(I)c21` [kb-NB165-31, 3,4-Dihydro-9-hydroxy-10-iodo-[1]benzothieno[2,3-f]-1,4-thiazepin-5(2H)-one]?
Answer: fold lower cellular activity than kb-NB142-70 ([2]; relative to kb-NB142-70): 4 fold; remaining activity at 1 µM [6]: 13.6%; melting point: 128 °C (dec.); IC50 ([3]; in vitro, read-out: PKD1 IC50): 114 nM; IC50 [3, 10]: 110 ± 20 nM

Question: Which IC50 [2, 9] does the source give for `O=C1NCCCSc2c1sc1ccc(O)cc21` [kb-NB165-92, 2,3,4,5-Tetrahydro-10-hydroxybenzo[b]thieno[2,3-f]-1,5-thiazocin-6-one] here?
Answer: The IC50 was 2560 ± 660 nM.

Question: What about the remaining activity at 1 µM [6] of the same molecule?
Answer: The remaining activity at 1 µM was 16.7%.

Question: And the IC50 [3, 10]?
Answer: Its IC50 is 110 ± 10 nM.

Question: For `COc1ncc2sc3c(c2n1)SCCNC3=O` [kmg-NB4-23, 2-Methoxy-7H,8H,9H-1,4-thiazepino [7′,6′-5,4]thiopheno[3,2-d]pyrimidin-6-one], which IC50 [2, 9] is on record?
Answer: Its IC50 is 6800 ± 1300 nM.

Question: And the melting point?
Answer: The melting point was 308 °C (dec.).

Question: And the solubility [7]?
Answer: The solubility was under 400 µg/mL.

Question: What about the IC50 ([3]; in vitro, read-out: PKD1 IC50) of the same molecule?
Answer: The IC50 was 124 nM.

Question: What about the IC50 [3, 10] of the same molecule?
Answer: Its IC50 is 120 ± 30 nM.

Question: What about the “inhibitory activity against PKD (in words)” value [3] of the same molecule?
Answer: The value was “potent nanomolar inhibitor”.

Question: With `O=C1NCCSc2c1sc1cnc(O)nc21` [kmg-NB4-69A, 2-Hydroxy-7H,8H,9H-1,4-thiazepino[7′,6′-5,4]thiopheno[3,2-d]pyrimidin-6-one] as the molecule, how does the IC50 [3, 10] read?
Answer: The IC50 was 25300 nM.

Question: What about the “inhibitory activity against PKD (in words)” value [3] of the same molecule?
Answer: The value was “only weak inhibitory effect”.

Question: What about the “stability in protic solvents” value [8] of the same molecule?
Answer: The value was “spontaneously degrades in protic solvents”.
